This passage reports EC50 and CC50 results from US20230365585A1, “BENZODIAZEPINE DERIVATIVES USEFUL IN TREATING A RESPIRATORY SYNCYTIAL VIRUS INFECTION” (priority 2020, published 2023).

The subject of one series is RSV A2. Nature of the series: RSV plaque reduction assay. It counts as cell-based, RSV (RSV A2 ECACC, 0709161v). The conditions noted are these: human respiratory syncytial virus, HepG2, 48 h, Hep-G2 cells, RSV A2, 2 days; mean of at least two experiments. The method, then: Compounds were subjected to RSV plaque reduction assays according to the following protocol.
Hep-G2 cells (ECACC, 85011430) were passaged in flasks and seeded in 24-well plates in DMEM containing antibiotics and supplemented with 10% FBS. During inoculation and subsequent incubation, cells were cultured in DMEM containing 2% FBS. 100 plaque forming unit/well of RSV (RSV A2 ECACC, 0709161v) was mixed with eight serial dilutions of compound. Subsequently, 100 µL of the virus/compound mixtures was added to confluent Hep-G2 cell monolayers. The cells and virus/compound mixtures were incubated at 37° C. in a humidified 5% CO2 incubator for 2 h prior to removal of the inoculum and addition of 1 mL of overlay (DMEM containing 2% FBS and 0.8% CMC) containing compound dilutions. The cells and were incubated at 37° C. in a humidified 5% CO2 incubator for 2 days.
Cells were washed with PBS before adding 75%/25% v/v EtOH/MeOH, for 3 min. Fix ative was removed and plates were washed with PBS. A pre-titrated amount of the primary antibody was added in 200 µL PBS/2% milk powder, and plates incubated for 90 min at 37° C. The plates were washed 3 times with PBS/0.05% Tween20 before addition of rabbit anti-goat horse radish peroxidase in 200 µL PBS/2% milk powder, and incubated for 1 h at 37° C. Following three wash steps with PBS/0.05% Tween20, 200 µL ready-to-use TrueBlue was added and plates were incubated at rt for 10-15 min before washing with water. After removal of water, plates were air-dried in the dark.
(§1) Plates were scanned and analysed using the Immunospot S6 Macro analyser, which is equipped with BioSpot analysis software for counting immunostained plaques (virospots). Plaque counts were used to calculate % infection relative to the mean of the plaque count in the virus control wells for RSV. […] Plaque EC50 and cell toxicity CC50 values are a mean of at least two experiments and figures are rounded to whole units.
A general note: In a plaque reduction assay, fewer plaques than in the control indicate reduced infectivity or spread.

Another series is described as follows: Cell cytotoxicity CC50. It counts as cell-based. Particulars: human; mean of at least two experiments.
From the text: as §1

In general, EC50 refers to the concentration at which the effect is half-maximal. Read a low EC50 as higher potency in that assay. For orientation: CC50 means the concentration giving 50% cytotoxicity. The low end stands for harm at low concentration, the high end for better tolerance by the cells. Take `CC(C)Nc1ccc(-c2nn3c(c2C(=O)N[C@H]2N=C(c4ccccc4)c4cccc(F)c4NC2=O)OC(C)CCC3)c(F)n1` (single isomer, unassigned) [Example 13-1, (5R*)-N-[(3S)-9-fluoro-2-oxo-5-phenyl-1,3-dihydro-1,4-benzodiazepin-3-yl]-2-[2-fluoro-6-(propan-2-ylamino)pyridin-3-yl]-5-methyl-5,6,7,8-tetrahydropyrazolo[5,1-b][1,3]oxazepine-3-carboxamide]: the EC50 with RSV A2 worked out at 26 nM. Moreover, in “Cell cytotoxicity CC50”, the CC50 was more than 25000 nM.

In the series on RSV A2, `O=C(N[C@H]1N=C(c2ccccc2)c2cccc(F)c2NC1=O)c1c(-c2ccccc2F)nn2c1SCCCC2` [Example 20, N-[(3S)-9-fluoro-2-oxo-5-phenyl-2,3-dihydro-1H-1,4-benzodiazepin-3-yl]-2-(2-fluorophenyl)-5H,6H,7H,8H-pyrazolo[3,2-b][1,3]thiazepine-3-carboxamide] had an EC50 of 34 nM. The CC50 in “Cell cytotoxicity CC50” is more than 25000 nM.

As for `CC1(C)CCCn2nc(-c3ccccc3F)c(C(=O)N[C@H]3N=C(c4ccccc4)c4ccccc4NC3=O)c2O1` [Example 5, 2-(2-Fluorophenyl)-5,5-dimethyl-N-[(3S)-2-oxo-5-phenyl-1,3-dihydro-1,4-benzodiazepin-3-yl]-7,8-dihydro-6H-pyrazolo[5,1-b][1,3]oxazepine-3-carboxamide], in the series on RSV A2, the EC50 was determined as 91 nM. The compound also returned a CC50 in “Cell cytotoxicity CC50” of more than 25000 nM.

The compound `CC1CCCn2nc(-c3ccccc3F)c(C(=O)N[C@H]3N=C(c4ccccc4)c4ccccc4NC3=O)c2O1` (stereo partly drawn) [Example 18, 2-(2-Fluorophenyl)-5-methyl-N-[(3S)-2-oxo-5-phenyl-1,3-dihydro-1,4-benzodiazepin-3-yl]-5,6,7,8-tetrahydropyrazolo[5,1-b][1,3]oxazepine-3-carboxamide] showed an EC50 in the series on RSV A2 of 37 nM. The compound also returned a CC50 in the series “Cell cytotoxicity CC50” of more than 25000 nM.

On to `CCNc1ccc(-c2nn3c(c2C(=O)N[C@H]2N=C(c4ccccc4)c4cccc(F)c4NC2=O)OC(C)CCC3)c(F)n1` (stereo partly drawn) [Example 11, 2-[6-(Ethylamino)-2-fluoropyridin-3-yl]-N-[(3S)-9-fluoro-2-oxo-5-phenyl-1,3-dihydro-1,4-benzodiazepin-3-yl]-5-methyl-5,6,7,8-tetrahydropyrazolo[5,1-b][1,3]oxazepine-3-carboxamide], for which, in the series on RSV A2, the response was half-maximal at 18 nM (EC50). The compound also gave a CC50 in “Cell cytotoxicity CC50” of more than 25000 nM.

As for `CC1(C)CCCn2nc(-c3ccccc3F)c(C(=O)N[C@H]3N=C(c4ccccc4)c4cccc(F)c4NC3=O)c2O1` [Example 6, N-[(3S)-9-Fluoro-2-oxo-5-phenyl-1,3-dihydro-1,4-benzodiazepin-3-yl]-2-(2-fluorophenyl)-5,5-dimethyl-7,8-dihydro-6H-pyrazolo[5,1-b][1,3]oxazepine-3-carboxamide], the response in the series on RSV A2 was half-maximal at 78 nM (EC50). Also, in “Cell cytotoxicity CC50”, the CC50 is more than 25000 nM.

Turning to `CC1CCCOc2c(C(=O)NC3N=C(c4ccccc4)c4cccc(F)c4NC3=O)c(-c3ccccc3F)nn21` (single isomer, unassigned) [Example 15-1, (8R*)-N-(9-fluoro-2-oxo-5-phenyl-1,3-dihydro-1,4-benzodiazepin-3-yl)-2-(2-fluorophenyl)-8-methyl-5,6,7,8-tetrahydropyrazolo[5,1-b][1,3]oxazepine-3-carboxamide], a half-maximal response with RSV A2 (EC50) required 47 nM. The CC50 in “Cell cytotoxicity CC50” was more than 25000 nM.

In turn, `O=C(NC1N=C(c2ccccc2)c2cccc(F)c2NC1=O)c1c(-c2ccccc2F)nn2c1OCC(N1CCOCC1)CC2` (stereo in doubt) [Example 29, 2-(2-Fluorophenyl)-6-morpholin-4-yl-N-[(3R)-9-fluoro-2-oxo-5-phenyl-1,3-dihydro-1,4-benzodiazepin-3-yl]-5,6,7,8-tetrahydropyrazolo[5,1-b][1,3]oxazepine-3-carboxamide] returned an EC50 in the series with RSV A2 of 154 nM. Moreover, the CC50 in “Cell cytotoxicity CC50” was more than 25000 nM.

As for `CC(C)Nc1ccc(-c2nn3c(c2C(=O)N[C@H]2N=C(c4ccccc4)c4ccccc4NC2=O)OC(C)CCC3)c(F)n1` (stereo partly drawn) [Example 12, 2-[2-Fluoro-6-(propan-2-ylamino)pyridin-3-yl]-5-methyl-N-[(3S)-2-oxo-5-phenyl-1,3-dihydro-1,4-benzodiazepin-3-yl]-5,6,7,8-tetrahydropyrazolo[5,1-b][1,3]oxazepine-3-carboxamide], in the series with RSV A2, the EC50 is 34 nM. Further, the CC50 in “Cell cytotoxicity CC50” was more than 25000 nM.

On to `CC(C)Nc1ccc(-c2nn3c(c2C(=O)N[C@H]2N=C(c4ccccc4)c4cccc(F)c4NC2=O)O[C@H]2CC[C@@H]3C2)cn1` (single isomer, unassigned) [Example 31-2, (1R*,8S*)-N-[(3S)-9-fluoro-2-oxo-5-phenyl-2,3-dihydro-1H-1,4-benzodiazepin-3-yl]-4-{6-[(propan-2-yl)amino]pyridin-3-yl}-7-oxa-2,3-diazatricyclo[6.2.1.02,6]undeca-3,5-diene-5-carboxamide], for which the EC50 in the series on RSV A2 was 94 nM. Moreover, the CC50 in “Cell cytotoxicity CC50” is more than 25000 nM.

With `Cc1cncc(-c2nn3c(c2C(=O)N[C@H]2N=C(c4ccccc4)c4cccc(F)c4NC2=O)OCCCC3)c1` [Example 4, N-[(3S)-9-Fluoro-2-oxo-5-phenyl-1,3-dihydro-1,4-benzodiazepin-3-yl]-2-(5-methylpyridin-3-yl)-5,6,7,8-tetrahydropyrazolo[5,1-b][1,3]oxazepine-3-carboxamide], in the series with RSV A2, the EC50 turned out to be 219 nM. The CC50 in “Cell cytotoxicity CC50” was more than 25000 nM.

Turning to `CCC1CCCn2nc(-c3ccc(C)nc3)c(C(=O)N[C@H]3N=C(c4ccccc4)c4cccc(F)c4NC3=O)c2O1` (single isomer, unassigned) [Example 27-1, (5R*)-5-ethyl-N-[(3S)-9-fluoro-2-oxo-5-phenyl-2,3-dihydro-1H-1,4-benzodiazepin-3-yl]-2-(6-methylpyridin-3-yl)-5H,6H,7H,8H-pyrazolo[3,2-b][1,3]oxazepine-3-carboxamide], in the series on RSV A2, the half-maximal effective concentration (EC50) was 295 nM. The same compound returned a CC50 in “Cell cytotoxicity CC50” of more than 25000 nM.

Compound `CC(C)Nc1ccc(-c2nn3c(c2C(=O)N[C@H]2N=C(c4ccccc4)c4cccc(F)c4NC2=O)O[C@@H]2CC[C@H]3C2)cn1` (single isomer, unassigned) [Example 31-1, (1S*,8R*)-N-[(3S)-9-fluoro-2-oxo-5-phenyl-2,3-dihydro-1H-1,4-benzodiazepin-3-yl]-4-{6-[(propan-2-yl)amino]pyridin-3-yl}-7-oxa-2,3-diazatricyclo[6.2.1.02,6]undeca-3,5-diene-5-carboxamide] displayed an EC50 in the series with RSV A2 of 63 nM. This compound also showed a CC50 in the series “Cell cytotoxicity CC50” of more than 25000 nM.

In turn, `O=C(N[C@H]1N=C(c2ccccc2)c2cccc(F)c2NC1=O)c1c(-c2ccccc2F)nn2c1O[C@@H]1CC[C@H]2C1` (single isomer, unassigned) [Example 19-1, (1S*,8R*)-N-[(3 S)-9-fluoro-2-oxo-5-phenyl-2,3-dihydro-1H-1,4-benzodiazepin-3-yl]-4-(2-fluorophenyl)-7-oxa-2,3-diazatricyclo[6.2.1.0^2,6]undeca-3,5-diene-5-carboxamide] registered an EC50 in the series with RSV A2 of 49 nM. For the same compound, the CC50 in “Cell cytotoxicity CC50” is more than 25000 nM.

For the compound `CCC1CCCn2nc(-c3ccccc3F)c(C(=O)N[C@H]3N=C(c4ccccc4)c4cccc(F)c4NC3=O)c2O1` (stereo partly drawn) [Example 25, 5-Ethyl-N-[(3 S)-9-fluoro-2-oxo-5-phenyl-1,3-dihydro-1,4-benzodiazepin-3-yl]-2-(2-fluorophenyl)-5,6,7,8-tetrahydropyrazolo[5,1-b][1,3]oxazepine-3-carboxamide], in the series on RSV A2, a half-maximal effect (EC50) was put at 83 nM. This compound also had a CC50 in the series “Cell cytotoxicity CC50” of more than 25000 nM.
